Measured values published in PubChem BioAssay (NCI).
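GI50 marks 50% less growth. TGI marks complete inhibition of growth.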

Assays:
Assay in all cases: NCI anticancer screen, dose series, 384-well format
786-0 renal = test system: 786-0 renal
A498 renal = test system: A498 renal
A549 NSCLC = test system: A549 NSCLC
ACHN renal = test system: ACHN renal
BT-549 breast = test system: BT-549 breast
CAKI-1 renal = test system: CAKI-1 renal
CCRF-CEM leukemia = test system: CCRF-CEM leukemia
COLO 205 colon = test system: COLO 205 colon
DU-145 prostate = test system: DU-145 prostate
EKVX NSCLC = test system: EKVX NSCLC
HCC-2998 colon = test system: HCC-2998 colon
HCT-116 colon = test system: HCT-116 colon
HCT-15 colon = test system: HCT-15 colon
HL-60(TB) leukemia = test system: HL-60(TB) leukemia
HOP-62 NSCLC = test system: HOP-62 NSCLC
HOP-92 NSCLC = test system: HOP-92 NSCLC
HS 578T breast = test system: HS 578T breast
HT29 colon = test system: HT29 colon
IGROV1 ovarian = test system: IGROV1 ovarian
K-562 leukemia = test system: K-562 leukemia
KM12 colon = test system: KM12 colon
LOX IMVI melanoma = test system: LOX IMVI melanoma
M14 melanoma = test system: M14 melanoma
MALME-3M melanoma = test system: MALME-3M melanoma
MCF7 breast = test system: MCF7 breast
MDA-MB-231 breast = test system: MDA-MB-231 breast
MDA-MB-435 melanoma = test system: MDA-MB-435 melanoma
MDA-MB-468 breast = test system: MDA-MB-468 breast
MOLT-4 leukemia = test system: MOLT-4 leukemia
NCI-H226 lung = test system: NCI-H226 lung
NCI-H23 lung = test system: NCI-H23 lung
NCI-H322M lung = test system: NCI-H322M lung
NCI-H460 NSCLC = test system: NCI-H460 NSCLC
NCI-H522 lung = test system: NCI-H522 lung
NCI/ADR-RES ovarian = test system: NCI/ADR-RES ovarian
OVCAR-3 ovarian = test system: OVCAR-3 ovarian
OVCAR-4 ovarian = test system: OVCAR-4 ovarian
OVCAR-5 ovarian = test system: OVCAR-5 ovarian
OVCAR-8 ovarian = test system: OVCAR-8 ovarian
PC-3 prostate = test system: PC-3 prostate
RPMI-8226 leukemia = test system: RPMI-8226 leukemia
RXF 393 renal = test system: RXF 393 renal
SF-268 CNS = test system: SF-268 CNS
SF-295 CNS = test system: SF-295 CNS
SF-539 CNS = test system: SF-539 CNS
SK-MEL-28 melanoma = test system: SK-MEL-28 melanoma
SK-MEL-5 melanoma = test system: SK-MEL-5 melanoma
SK-OV-3 ovarian = test system: SK-OV-3 ovarian
SN12C renal = test system: SN12C renal
SNB-19 CNS = test system: SNB-19 CNS
SNB-75 CNS = test system: SNB-75 CNS
SW-620 colon = test system: SW-620 colon
T-47D breast = test system: T-47D breast
TK-10 renal = test system: TK-10 renal
U251 glioblastoma = test system: U251 glioblastoma
UACC-257 melanoma = test system: UACC-257 melanoma
UACC-62 melanoma = test system: UACC-62 melanoma
UO-31 renal = test system: UO-31 renal

## CCOC(=O)C(Cc1ccc(CCCC(=O)NCCC(=O)Nc2ccc3nc(C)sc3c2)cc1)C(=O)OCC
786-0 renal
  GI50: 26.7 µM
  TGI: 75 µM
A498 renal
  GI50: 27.7 µM
  TGI: 64.1 µM
A549 NSCLC
  GI50: 23.3 µM
  TGI: 59.1 µM
ACHN renal
  GI50: 18 µM
  TGI: 31.9 µM
BT-549 breast
  GI50: 19.2 µM
  TGI: 33.8 µM
CAKI-1 renal
  GI50: 18.4 µM
  TGI: 33.1 µM
CCRF-CEM leukemia
  GI50: 17.5 µM
  TGI: 31.4 µM
COLO 205 colon
  GI50: 21.1 µM
  TGI: 40.3 µM
DU-145 prostate
  GI50: 19.8 µM
  TGI: 34.9 µM
EKVX NSCLC
  GI50: 27.7 µM
  TGI: 69.6 µM
HCC-2998 colon
  GI50: 10.2 µM
  TGI: 35.6 µM
HCT-116 colon
  GI50: 25.9 µM
  TGI: 62.8 µM
HCT-15 colon
  GI50: 23.1 µM
  TGI: 47.9 µM
HL-60(TB) leukemia
  GI50: 23 µM
  TGI: 37.6 µM
HOP-62 NSCLC
  GI50: 17.2 µM
  TGI: 35.9 µM
HOP-92 NSCLC
  GI50: 25.8 µM
  TGI: 68.2 µM
HS 578T breast
  GI50: 19.8 µM
  TGI: 34.5 µM
HT29 colon
  GI50: 21.3 µM
  TGI: 42.5 µM
IGROV1 ovarian
  GI50: 26.2 µM
  TGI: 51.9 µM
K-562 leukemia
  GI50: 14 µM
  TGI: 33.6 µM
KM12 colon
  GI50: 18.8 µM
  TGI: 37.3 µM
LOX IMVI melanoma
  GI50: 16.8 µM
  TGI: 30.8 µM
M14 melanoma
  GI50: 19.3 µM
  TGI: 37 µM
MALME-3M melanoma
  GI50: 22.5 µM
  TGI: 45.7 µM
MCF7 breast
  GI50: 16.7 µM
  TGI: 32.5 µM
MDA-MB-231 breast
  GI50: 21.1 µM
  TGI: 48.1 µM
MDA-MB-435 melanoma
  GI50: 23.5 µM
  TGI: 41.2 µM
MDA-MB-468 breast
  GI50: 12 µM
  TGI: 25.6 µM
MOLT-4 leukemia
  GI50: 13 µM
  TGI: 25.7 µM
NCI-H226 lung
  GI50: 17.1 µM
  TGI: 32.1 µM
NCI-H23 lung
  GI50: 19.7 µM
  TGI: 37.2 µM
NCI-H322M lung
  GI50: 19.4 µM
  TGI: 38.3 µM
NCI-H460 NSCLC
  GI50: 19.2 µM
  TGI: 35.9 µM
NCI-H522 lung
  GI50: 20.5 µM
  TGI: 37.1 µM
NCI/ADR-RES ovarian
  GI50: 17.9 µM
  TGI: 31.9 µM
OVCAR-3 ovarian
  GI50: 21.9 µM
  TGI: 40.4 µM
OVCAR-4 ovarian
  GI50: 32.5 µM
  TGI: 72 µM
OVCAR-5 ovarian
  GI50: > 100 µM
  TGI: > 100 µM
OVCAR-8 ovarian
  GI50: 18.1 µM
  TGI: 32 µM
PC-3 prostate
  GI50: 19.4 µM
  TGI: 33.9 µM
RPMI-8226 leukemia
  GI50: 17.7 µM
  TGI: 31.7 µM
RXF 393 renal
  GI50: 21.8 µM
  TGI: 48.3 µM
SF-268 CNS
  GI50: 17.7 µM
  TGI: 38.3 µM
SF-295 CNS
  GI50: 35.4 µM
  TGI: > 100 µM
SF-539 CNS
  GI50: 18.7 µM
  TGI: 32.8 µM
SK-MEL-28 melanoma
  GI50: 26.6 µM
  TGI: 51.7 µM
SK-MEL-5 melanoma
  GI50: 14.1 µM
  TGI: 27.1 µM
SK-OV-3 ovarian
  GI50: 22.6 µM
  TGI: 46.8 µM
SN12C renal
  GI50: 24.7 µM
  TGI: 48.4 µM
SNB-19 CNS
  GI50: 63.1 µM
  TGI: > 100 µM
SNB-75 CNS
  GI50: 19.7 µM
  TGI: 35.8 µM
SW-620 colon
  GI50: 55.2 µM
  TGI: > 100 µM
T-47D breast
  GI50: 8.21 µM
  TGI: 20.4 µM
TK-10 renal
  GI50: 30.4 µM
  TGI: 83.9 µM
U251 glioblastoma
  GI50: 37.6 µM
  TGI: > 100 µM
UACC-257 melanoma
  GI50: 19 µM
  TGI: 33.1 µM
UACC-62 melanoma
  GI50: 19.1 µM
  TGI: 33.6 µM
UO-31 renal
  GI50: 22.9 µM
  TGI: 48.7 µM
